23 compounds from patent US9422292B2, “Bromodomain inhibitors and uses thereof” (Constellation Pharmaceuticals, Inc., priority 2011, dated 2016) can be followed below.

For test [1], the target named is T1, BRD4 (BD1) (Homo sapiens, UniProt O60885).
T1 construct: His; made in house
In words: BRD4 AlphaLisa binding assay. As to the method:
A. IC50 Measurements for Inhibitors Using BRD4 AlphaLisa Binding Assay.
Specifically, in a 384 well ProxiPlate BRD4 (BD1) (30 nM final) was combined with peptide (200 nM final) in 40 mM HEPES (pH 7.0), 40 mM NaCl, 1 mM DTT, 0.01% (w/v) BSA, and 0.008% (w/v) Brij-35 either in the presence of DMSO (final 1.2% DMSO) or compound dilution series in DMSO. After 20 minute incubation at room temperature Alpha streptavidin donor beads and AlphaLisa anti-Flag acceptor beads were added to a final concentration of 10 ug/mL each. After three hours equilibration plates were read on an Envision instrument and IC50s calculated using a four parameter non-linear curve fit.
In general terms: Alpha assays give light when donor and acceptor beads are brought close together.

For test [2], the system named is MYC mRNA in MV4:11 (AML) cells. In words: cMyc RNA quantification assay (QuantiGene) in MV4:11 cells. The class given is cell-based. As to conditions: Homo sapiens, 4 h, QuantiGene 2.0. As to the method:
B. cMyc RNA Quantification Assay (QuantiGene® Assay):
MV4:11 (AML) cells were seeded in a 96-well plate and incubated in the presence of various concentrations of compounds for 4 h. Relative mRNA levels were quantitated by using QuantiGene 2.0 assay (Affymetrix) according to the manufacturer's recommendation. Signals were detected by using an Envision plate reader (Perkin-Elmer). Biological duplicates were averaged and normalized to vehicle (DMSO) control to calculate percent MYC mRNA levels.

Test [3] has as its system IL-6 secretion in THP-1 cells. Briefly: Cell-based IL-6 quantification assay (ELISA, Mesoscale) in LPS-treated THP-1 cells. Conditions: Homo sapiens, LPS 4 μg/mL, 16 h, ELISA value/CellTiter-Glo ratio. As to the method:
C. Cell-Based IL-6 Quantification Assay (ELISA, Mesoscale Assay):
100,000 THP-1 cells were seeded in RPMI1640-10% FBS in 96-well plates. LPS (E. Coli Invitrogen) in RPMI−10% FBS at a final concentration of 4 μg/mL was added to the wells and the cells are then incubated in the presence of various concentrations of compounds for 16 h. Plates are spun ([…], 5 min), an aliquot of 25 uL supernatant is transferred in to an ELISA plate (Mesoscale technology, MSD) and the detection of IL-6 is performed using manufacturer's instructions. The amount of cells in each well is assessed using CellTiter-Glo® (Promega). The ratio of ELISA value/CellTiter-Glo value is used to calculate the percent of inhibition of IL-6 secretion.

The mark [4] stands for this setting: BRD4 (BD1) 30 nM, biotinylated H4-tetraacetyl peptide 200 nM, read-out: BRD4 AlphaLisa.

Where two headings read alike, the source gives them in different places.

Regarding `Cc1nnc2n1-c1ccc(-c3ccc(N)nc3)cc1N(c1ccc(C(N)=O)cc1)CC2C` (stereo in doubt) [Compound 70, (S)-4-(8-(6-aminopyridin-3-yl)-1,4-dimethyl-4H-benzo[b][1,2,4]triazolo[4,3-d][1,4]diazepin-6(5H)-yl)benzamide], the IC50 was < 100 nM in test [1] (setting [4]), 1000 to 10000 nM in test [2] and 1000 to 10000 nM in test [3].

`Cc1nnc2n1-c1ccccc1N(c1ccc(Cl)cc1)CC2C` (stereo not drawn) [Compound 1, 6-(4-chlorophenyl)-1,4-dimethyl-5,6-dihydro-4H-benzo[b][1,2,4]triazolo[4,3-d][1,4]diazepine]: the IC50 in test [1], in test [2] and in test [3] was 100 to 1000 nM throughout.

`Cc1nnc2n1-c1ccccc1N(c1ccc(Cl)cc1)CC2` [Compound 2, 6-(4-chlorophenyl)-1-methyl-5,6-dihydro-4H-benzo[b][1,2,4]triazolo[4,3-d][1,4]diazepine]: the results for the IC50 in test [1], in test [2] and in test [3] were 100 to 1000 nM, 1000 to 10000 nM and 1000 to 10000 nM, respectively.

For `Cc1nnc2n1-c1ccccc1N(c1ccc(Cl)cc1)CC2(C)C` [Compound 3, 6-(4-chlorophenyl)-1,4,4-trimethyl-5,6-dihydro-4H-benzo[b][1,2,4]triazolo[4,3-d][1,4]diazepine], the results for the IC50 in test [1], in test [2] and in test [3] were 100 to 1000 nM, 1000 to 10000 nM and 100 to 1000 nM, respectively.

As to `Cc1nnc2n1-c1ccc(-c3ccc(N)nc3)cc1N(c1ccc(Cl)cc1)CC2` [Compound 15, 5-(6-(4-chlorophenyl)-1-methyl-5,6-dihydro-4H-benzo[b][1,2,4]triazolo[4,3-d][1,4]diazepin-8-yl)pyridin-2-amine], the IC50 was < 100 nM in test [1] (setting [4]), 100 to 1000 nM in test [2] and < 100 nM in test [3].

On to `Cc1nnc2n1-c1ccc(-c3ccc(N)nc3)cc1N(c1ccc(C#N)cc1)CC2` [Compound 16, 4H-[1,2,4]triazolo[4,3-a][1,5]benzodiazepine, 5,6-dihydro-1-methyl-8-(6-aminopyridin-3-yl)-6-(4-cyano-phenyl)], for which the IC50 in test [1] (setting [4]), in test [2] and in test [3] was 100 to 1000 nM throughout.

Take `Cc1nnc2n1-c1c(F)cccc1N(c1ccc(Cl)cc1)CC2` [Compound 17, 6-(4-chlorophenyl)−10-fluoro-1-methyl-5,6-dihydro-4H-benzo[b][1,2,4]triazolo[4,3-d][1,4]diazepine]: the IC50 in test [1] (setting [4]) is 1000 to 10000 nM; in test [2], 1000 to 10000 nM; in test [3] it was > 1000 nM.

On to `Cc1nnc2n1-c1ccccc1N(c1ccc(Cl)cc1)C(C)C2` (stereo not drawn) [Compound 18, 6-(4-chlorophenyl)-1,5-dimethyl-5,6-dihydro-4H-benzo[b][1,2,4]triazolo[4,3-d][1,4]diazepine], for which the IC50 in test [1] (setting [4]) is 100 to 1000 nM; in test [2], 1000 to 10000 nM; in test [3], > 1000 nM.

With `Cc1nnc2n1-c1ccc(-c3ccc(N)nc3)cc1N(c1ccc(C(F)(F)F)cc1)CC2` [Compound 19, 4H-[1,2,4]triazolo[4,3-a][1,5]benzodiazepine,5,6-dihydro-1-methyl-8-(6-amino-pyridin-3-yl)-6-(4-trifluoromethyl-phenyl)], the IC50 was < 100 nM in test [1] (setting [4]), 100 to 1000 nM in test [2] and < 100 nM in test [3].

Regarding `Cc1nnc2n1-c1ccc(-c3ccc(C(=O)O)cc3)cc1N(c1ccc(Cl)cc1)CC2` [Compound 20, 4H-[1,2,4]triazolo[4,3-a][1,5]benzodiazepine,5,6-dihydro-1-methyl-8-(4-carboxy-phenyl)-6-(4-chloro-phenyl)], the IC50 in test [1] (setting [4]) was < 100 nM; in test [2] it was 100 to 1000 nM; in test [3], 100 to 1000 nM.

As for `Cc1nnc2n1-c1ccc(-c3ncccn3)cc1N(c1ccc(Cl)cc1)CC2` [Compound 21, 6-(4-chlorophenyl)-1-methyl-8-(pyrimidin-2-yl)-5,6-dihydro-4H-benzo[b][1,2,4]triazolo[4,3-d][1,4]diazepine], the values for the IC50 in test [1] (setting [4]), in test [2] and in test [3] were 100 to 1000 nM, 1000 to 10000 nM and 100 to 1000 nM, respectively.

`Cc1nnc2n1-c1ccccc1N(c1ccc(Cl)cc1)C(C)(C)C2` [Compound 22, 6-(4-chlorophenyl)-1,5,5-trimethyl-5,6-dihydro-4H-benzo[b][1,2,4]triazolo[4,3-d][1,4]diazepine]: the values for the IC50 in test [1] (setting [4]), in test [2] and in test [3] were > 10000 nM, 100 to 1000 nM and 1000 to 10000 nM, respectively.

For `Cc1nnc2n1-c1ccc(-c3ccc(N)nc3)cc1N(c1ccc(Cl)cc1)CC2C` (stereo not drawn) [Compound 23, 4H-[1,2,4]triazolo[4,3-a][1,5]benzodiazepine,5,6-dihydro-1,4-dimethyl-8-(6-aminopyridin-3-yl)-6-(4-chloro-phenyl)], the IC50 in test [1] (setting [4]), in test [2] and in test [3] was < 100 nM throughout.

`Cc1nnc2n1-c1ccc(-c3ncc(C(=O)O)cn3)cc1N(c1ccc(Cl)cc1)CC2` [Compound 24, 4H-[1,2,4]triazolo[4,3-a][1,5]benzodiazepine, 5,6-dihydro-1-methyl-8-(5-(carboxy)pyrimidin-2-yl)-6-(4-chloro-phenyl)]: the figures for the IC50 in test [1] (setting [4]), in test [2] and in test [3] were < 100 nM, 1000 to 10000 nM and > 1000 nM, respectively.

Take `Cc1nnc2n1-c1ccc(-c3cnc(N)nc3)cc1N(c1ccc(Cl)cc1)CC2C` (stereo not drawn) [Compound 25]: the results for the IC50 in test [1] (setting [4]), in test [2] and in test [3] were < 100 nM, < 100 nM and 100 to 1000 nM, respectively.

Consider `Cc1nnc2n1-c1ccc(-c3ccc(N)nc3)cc1N(c1ccc(Cl)cc1)C[C@H]2C` [Compound 26, (R)-4H-[1,2,4]triazolo[4,3-a][1,5]benzodiazepine, 5,6-dihydro-1,4-dimethyl-8-(6-aminopyridin-3-yl)-6-(4-chloro-phenyl)], for which the IC50 in test [1] (setting [4]), in test [2] and in test [3] was < 100 nM throughout.

With `Cc1nnc2n1-c1ccc(-c3ccc(N)nc3)cc1N(c1ccc(Cl)cc1)C[C@@H]2C` [Compound 27, (S)-4H-[1,2,4]triazolo[4,3-a][1,5]benzodiazepine, 5,6-dihydro-1,4-dimethyl-8-(6-aminopyridin-3-yl)-6-(4-chloro-phenyl)], the IC50 fell in the range of 100 to 1000 nM in test [1] (setting [4]), 1000 to 10000 nM in test [2] and 100 to 1000 nM in test [3].

With `Cc1ccc(-c2ccc3c(c2)N(c2ccc(Cl)cc2)C[C@H](C)c2nnc(C)n2-3)cn1` [Compound 28, (S)-4H-[1,2,4]triazolo[4,3-a][1,5]benzodiazepine, 5,6-dihydro-1,4-dimethyl-8-(6-methylpyridin-3-yl)-6-(4-chloro-phenyl)], the IC50 in test [1] (setting [4]), in test [2] and in test [3] was 1000 to 10000 nM throughout.

With `Cc1ccc(-c2ccc3c(c2)N(c2ccc(Cl)cc2)C[C@@H](C)c2nnc(C)n2-3)cn1` [Compound 29, (R)-4H-[1,2,4]triazolo[4,3-a][1,5]benzodiazepine, 5,6-dihydro-1,4-dimethyl-8-(6-methylpyridin-3-yl)-6-(4-chloro-phenyl)], the IC50 in test [1] (setting [4]), in test [2] and in test [3] was < 100 nM throughout.

Regarding `Cc1nnc2n1-c1ccc(Br)cc1N(c1ccc(Cl)cc1)C[C@@H]2C` [Compound 37, (S)-4H-[1,2,4]triazolo[4,3-a][1,5]benzodiazepine, 5,6-dihydro-1,4-dimethyl-8-bromo-6-(4-chloro-phenyl)], the IC50 was 1000 to 10000 nM in test [1] (setting [4]), 1000 to 10000 nM in test [2] and > 1000 nM in test [3].

As for `Cc1nnc2n1-c1ccc(Br)cc1N(c1ccc(Cl)cc1)C[C@H]2C` [Compound 38, (R)-4H-[1,2,4]triazolo[4,3-a][1,5]benzodiazepine,5,6-dihydro-1,4-dimethyl-8-bromo-6-(4-chloro-phenyl)], the IC50 in test [1] (setting [4]), in test [2] and in test [3] was 100 to 1000 nM in each case.

Turning to `Cc1nnc2n1-c1ccc(-c3cnc(N)nc3)cc1N(c1ccc(Cl)cc1)C[C@H]2C` [Compound 39, (R)-4H-[1,2,4]triazolo[4,3-a][1,5]benzodiazepine,5,6-dihydro-1,4-dimethyl-8-(2-aminopyrimidin-5-yl)-6-(4-chloro-phenyl)], the IC50 in test [1] (setting [4]), in test [2] and in test [3] was < 100 nM throughout.

On to `Cc1nnc2n1-c1ccc(C(N)=O)cc1N(c1ccc(Cl)cc1)C[C@H]2C` [Compound 41, 4-R-4H-[1,2,4]Triazolo[4,3-a][1,5]benzodiazepine,5,6-dihydro-1,4-dimethyl-8-carbamoyl-6-(4-chloro-phenyl)], for which the results for the IC50 in test [1] (setting [4]), in test [2] and in test [3] were < 100 nM, < 100 nM and 100 to 1000 nM, respectively.
